In brackets after ≈: the same amount, converted by molar mass. Activity calls are given as the source filed them. The calls are words filed in the database; no cut-off is given here.
Assays:
Assay type in all cases: functional
Escherichia coli = experiment: Antimicrobial activity against Escherichia coli after 24 hrs
Pseudomonas aeruginosa = experiment: Antimicrobial activity against Pseudomonas aeruginosa after 24 hrs
Klebsiella aerogenes = experiment: Antimicrobial activity against Enterobacter aerogenes after 24 hrs
Staphylococcus aureus = experiment: Antimicrobial activity against Staphylococcus aureus after 24 hrs
Enterococcus faecalis = experiment: Antimicrobial activity against Enterococcus faecalis after 24 hrs
Priestia megaterium = experiment: Antimicrobial activity against Bacillus megaterium after 24 hrs

MIC (Escherichia coli) | MIC (Pseudomonas aeruginosa) | MIC (Klebsiella aerogenes) | MIC (Staphylococcus aureus) | MIC (Enterococcus faecalis) | MIC (Priestia megaterium) | Compound
1.96 µg/mL (≈ 4.32 µM) | 19.5 µg/mL (≈ 43.1 µM) | 31.2 µg/mL (≈ 68.9 µM) | 31.2 µg/mL (≈ 68.9 µM) | 31.2 µg/mL (≈ 68.9 µM) | inactive | C=CC1=C(C(=O)O)N2C(=O)[C@@H](NC(=O)/C(=N\OCC(=O)O)c3csc(N)n3)[C@H]2SC1 [CEFIXIME]
inactive | inactive | inactive | 31.2 µg/mL (≈ 59.1 µM) | 62.5 µg/mL (≈ 118 µM) | 31.2 µg/mL (≈ 59.1 µM) | C[C@H](CCC(=O)N/N=C/c1ccc(F)cc1)[C@H]1CC[C@H]2[C@@H]3[C@H](O)C[C@@H]4C[C@H](O)CC[C@]4(C)[C@H]3C[C@H](O)[C@]12C
inactive | inactive | inactive | 62.5 µg/mL (≈ 121 µM) | 31.2 µg/mL (≈ 60.5 µM) | 15.6 µg/mL (≈ 30.2 µM) | C[C@H](CCC(=O)N/N=C/c1cccs1)[C@H]1CC[C@H]2[C@@H]3[C@H](O)C[C@@H]4C[C@H](O)CC[C@]4(C)[C@H]3C[C@H](O)[C@]12C
inactive | inactive | inactive | inactive | 31.2 µg/mL (≈ 73.9 µM) | 31.2 µg/mL (≈ 73.9 µM) | C[C@H](CCC(=O)NN)[C@H]1CC[C@H]2[C@@H]3[C@H](O)C[C@@H]4C[C@H](O)CC[C@]4(C)[C@H]3C[C@H](O)[C@]12C [CHOLYLHYDRAZIDE]
3.91 µg/mL (≈ 7.66 µM) | inactive | inactive | 62.5 µg/mL (≈ 122 µM) | 15.6 µg/mL (≈ 30.6 µM) | 31.2 µg/mL (≈ 61.2 µM) | C[C@H](CCC(=O)N/N=C/c1ccccc1)[C@H]1CC[C@H]2[C@@H]3[C@H](O)C[C@@H]4C[C@H](O)CC[C@]4(C)[C@H]3C[C@H](O)[C@]12C
3.91 µg/mL (≈ 7.17 µM) | inactive | inactive | 62.5 µg/mL (≈ 115 µM) | 1.96 µg/mL (≈ 3.6 µM) | 31.2 µg/mL (≈ 57.3 µM) | C[C@H](CCC(=O)N/N=C/c1ccc(Cl)cc1)[C@H]1CC[C@H]2[C@@H]3[C@H](O)C[C@@H]4C[C@H](O)CC[C@]4(C)[C@H]3C[C@H](O)[C@]12C
inactive | inactive | inactive | inactive | 31.2 µg/mL (≈ 53.9 µM) | inactive | COc1ccc2[nH]cc(/C=N/NC(=O)CC[C@@H](C)[C@H]3CC[C@H]4[C@@H]5[C@H](O)C[C@@H]6C[C@H](O)CC[C@]6(C)[C@H]5C[C@H](O)[C@]34C)c2c1
7.81 µg/mL (≈ 13.2 µM) | inactive | inactive | 31.2 µg/mL (≈ 53 µM) | 3.91 µg/mL (≈ 6.63 µM) | 31.2 µg/mL (≈ 53 µM) | C[C@H](CCC(=O)N/N=C/c1ccc(Cl)c([N+](=O)[O-])c1)[C@H]1CC[C@H]2[C@@H]3[C@H](O)C[C@@H]4C[C@H](O)CC[C@]4(C)[C@H]3C[C@H](O)[C@]12C
7.81 µg/mL (≈ 14.1 µM) | inactive | inactive | 31.2 µg/mL (≈ 56.2 µM) | 7.82 µg/mL (≈ 14.1 µM) | 31.2 µg/mL (≈ 56.2 µM) | C[C@H](CCC(=O)N/N=C/c1ccc([N+](=O)[O-])cc1)[C@H]1CC[C@H]2[C@@H]3[C@H](O)C[C@@H]4C[C@H](O)CC[C@]4(C)[C@H]3C[C@H](O)[C@]12C
inactive | inactive | inactive | inactive | inactive | 31.2 µg/mL (≈ 62.5 µM) | C[C@H](CCC(=O)N/N=C/c1ccc[nH]1)[C@H]1CC[C@H]2[C@@H]3[C@H](O)C[C@@H]4C[C@H](O)CC[C@]4(C)[C@H]3C[C@H](O)[C@]12C
inactive | inactive | inactive | 31.2 µg/mL (≈ 56.8 µM) | 3.91 µg/mL (≈ 7.11 µM) | 15.6 µg/mL (≈ 28.4 µM) | C[C@H](CCC(=O)N/N=C/c1cc2ccccc2[nH]1)[C@H]1CC[C@H]2[C@@H]3[C@H](O)C[C@@H]4C[C@H](O)CC[C@]4(C)[C@H]3C[C@H](O)[C@]12C
inactive | inactive | inactive | 31.2 µg/mL (≈ 59.3 µM) | 7.82 µg/mL (≈ 14.8 µM) | 31.2 µg/mL (≈ 59.3 µM) | C[C@H](CCC(=O)N/N=C/c1ccccc1O)[C@H]1CC[C@H]2[C@@H]3[C@H](O)C[C@@H]4C[C@H](O)CC[C@]4(C)[C@H]3C[C@H](O)[C@]12C
3.91 µg/mL (≈ 6.63 µM) | inactive | inactive | 62.5 µg/mL (≈ 106 µM) | 3.91 µg/mL (≈ 6.63 µM) | 7.82 µg/mL (≈ 13.3 µM) | C[C@H](CCC(=O)N/N=C/c1ccc(Br)cc1)[C@H]1CC[C@H]2[C@@H]3[C@H](O)C[C@@H]4C[C@H](O)CC[C@]4(C)[C@H]3C[C@H](O)[C@]12C
inactive | inactive | inactive | inactive | inactive | 31.2 µg/mL (≈ 62.4 µM) | C[C@H](CCC(=O)N/N=C/c1ccco1)[C@H]1CC[C@H]2[C@@H]3[C@H](O)C[C@@H]4C[C@H](O)CC[C@]4(C)[C@H]3C[C@H](O)[C@]12C
inactive | inactive | 7.82 µg/mL (≈ 21.3 µM) | 31.2 µg/mL (≈ 85 µM) | 31.2 µg/mL (≈ 85 µM) | 31.2 µg/mL (≈ 85 µM) | N[C@@H](C(=O)N[C@@H]1C(=O)N2C(C(=O)O)=C(Cl)CS[C@H]12)c1ccccc1 [CEFACLOR ANHYDROUS]
7.81 µg/mL (≈ 14.9 µM) | inactive | inactive | 31.2 µg/mL (≈ 59.6 µM) | 7.82 µg/mL (≈ 14.9 µM) | inactive | Cc1ccc(/C=N/NC(=O)CC[C@@H](C)[C@H]2CC[C@H]3[C@@H]4[C@H](O)C[C@@H]5C[C@H](O)CC[C@]5(C)[C@H]4C[C@H](O)[C@]23C)cc1
3.91 µg/mL (≈ 6.85 µM) | inactive | inactive | inactive | 15.6 µg/mL (≈ 27.4 µM) | 31.2 µg/mL (≈ 54.8 µM) | COc1cccc(/C=N/NC(=O)CC[C@@H](C)[C@H]2CC[C@H]3[C@@H]4[C@H](O)C[C@@H]5C[C@H](O)CC[C@]5(C)[C@H]4C[C@H](O)[C@]23C)c1OC
7.81 µg/mL (≈ 14.4 µM) | inactive | inactive | 62.5 µg/mL (≈ 116 µM) | 15.6 µg/mL (≈ 28.9 µM) | 31.2 µg/mL (≈ 57.8 µM) | COc1ccc(/C=N/NC(=O)CC[C@@H](C)[C@H]2CC[C@H]3[C@@H]4[C@H](O)C[C@@H]5C[C@H](O)CC[C@]5(C)[C@H]4C[C@H](O)[C@]23C)cc1
3.91 µg/mL (≈ 7.17 µM) | inactive | inactive | 31.2 µg/mL (≈ 57.3 µM) | 1.96 µg/mL (≈ 3.6 µM) | 31.2 µg/mL (≈ 57.3 µM) | C[C@H](CCC(=O)N/N=C/c1cccc(Cl)c1)[C@H]1CC[C@H]2[C@@H]3[C@H](O)C[C@@H]4C[C@H](O)CC[C@]4(C)[C@H]3C[C@H](O)[C@]12C
7.81 µg/mL (≈ 13.2 µM) | inactive | inactive | inactive | 1.96 µg/mL (≈ 3.32 µM) | 31.2 µg/mL (≈ 53 µM) | C[C@H](CCC(=O)N/N=C/c1ccccc1Br)[C@H]1CC[C@H]2[C@@H]3[C@H](O)C[C@@H]4C[C@H](O)CC[C@]4(C)[C@H]3C[C@H](O)[C@]12C
7.81 µg/mL (≈ 14.6 µM) | inactive | inactive | 31.2 µg/mL (≈ 58.3 µM) | 15.6 µg/mL (≈ 29.2 µM) | 31.2 µg/mL (≈ 58.3 µM) | C[C@H](CCC(=O)N/N=C/c1ccc(C#N)cc1)[C@H]1CC[C@H]2[C@@H]3[C@H](O)C[C@@H]4C[C@H](O)CC[C@]4(C)[C@H]3C[C@H](O)[C@]12C
7.81 µg/mL (≈ 19.1 µM) | 15.6 µg/mL (≈ 38.3 µM) | inactive | inactive | 31.2 µg/mL (≈ 76.5 µM) | inactive | C[C@H](CCC(=O)O)[C@H]1CC[C@H]2[C@@H]3[C@H](O)C[C@@H]4C[C@H](O)CC[C@]4(C)[C@H]3C[C@H](O)[C@]12C [CHOLIC ACID]
7.81 µg/mL (≈ 15.3 µM) | inactive | inactive | inactive | inactive | 31.2 µg/mL (≈ 61.1 µM) | C[C@H](CCC(=O)N/N=C/c1ccccn1)[C@H]1CC[C@H]2[C@@H]3[C@H](O)C[C@@H]4C[C@H](O)CC[C@]4(C)[C@H]3C[C@H](O)[C@]12C
inactive | inactive | inactive | inactive | 15.6 µg/mL (≈ 27.4 µM) | 31.2 µg/mL (≈ 54.8 µM) | COc1ccc(OC)c(/C=N/NC(=O)CC[C@@H](C)[C@H]2CC[C@H]3[C@@H]4[C@H](O)C[C@@H]5C[C@H](O)CC[C@]5(C)[C@H]4C[C@H](O)[C@]23C)c1

Source: ChEMBL document CHEMBL1165868, “Synthesis and antimicrobial activity of cholic acid hydrazone analogues” (2010)
